Measurements reported in article PMC10584170, “Machine learning-based phenotypic imaging to characterise the targetable biology of Plasmodium falciparum male gametocytes for the development of transmission-blocking antimalarials” (PLOS Pathogens, 2023).
Read-outs that look alike come from different tables or passages of the source.

Columns and labels:
[1] = system: P. falciparum male gametocytes; assay: P. falciparum Dual Gamete Formation Assay (PfDGFA), male readout (exflagellation); assay type: cell-based, Plasmodium falciparum NF54; conditions: for Selectivity Ratio M: HepG2 Tox50 versus male IC50
Procedure, shortened: (§1)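 Two sex-specific readouts come from one well: male exflagellation centres recorded by brightfield video right after activation, and female gametes scored by Cy3-anti-Pfs25 fluorescence after 24 h at 28°C.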

[2] = system: P. falciparum female gametocytes; assay: P. falciparum Dual Gamete Formation Assay (PfDGFA), female readout (Pfs25-positive female gametes); assay type: cell-based, Plasmodium falciparum NF54; conditions: for Selectivity ratio F: HepG2 Tox50 versus female IC50
Procedure, shortened: as §1

HepG2 cells = assay: HepG2 cytotoxicity counter-screen; conditions: for DGFA Tox50 HepG2: HepG2 value reported with the DGFA screen; for Mean TOX: mean of the HepG2 TOX50 values; for Tox50: cytotoxic activity against HepG2 cells
[3] = this study, read-out: Pf DGFA IC50 MALE
[4] = this study, read-out: Pf DGFA IC50 FEM
[5] = 2µM, 24h preincubation with gametocytes, average of replicates
[6] = 2µM, 24h preincubation with gametocytes, replicate R1
[7] = 2µM, 24h preincubation with gametocytes, replicate R3
[8] = 2µM, 24h preincubation with gametocytes, replicate R4

SMILES | Cytotox ratio Pf Male [1] | IC50 [1, 3] [nM] | Cytotox ratio Pf Female [2] | IC50 [2, 4] [nM] | Mean TOX (HepG2 cells) [µM] | also measured
FC(F)(F)c1cccc(NC(=S)NN=Cc2ccccn2)c1 [TC06] | 142.9 | 700 | 142.9 | 700 | 100.00 | DGFA Tox50 HepG2 (HepG2 cells): 100 µM
O=C(Cc1cccc(O)c1)NCC(Cc1ccc(O)cc1)c1ccccc1 (stereo not shown) [TC08] | 58.1 | 1720 | 10.0 |  | 100.00 | DGFA Tox50 HepG2 (HepG2 cells): 100 µM
N=C(N)NCCN(Cc1ccccc1)c1ccc(Cl)cc1 [TC09] | 72.7 | 670 | 7.5 | 6500 | 48.68 | 
O=C(NC1CCN(Cc2ccccc2)CC1)c1cc(C(=O)NC2CCN(Cc3ccccc3)CC2)cc(C(=O)NC2CCN(Cc3ccccc3)CC2)c1 [TC20] | 13.0 | 7710 | 10.0 |  | 100.00 | DGFA Tox50 HepG2 (HepG2 cells): 100 µM
CC(C)S(=O)(=O)N1CCN(Cc2ccc3c(c2)nc(NC(=O)c2ccsc2)n3C[C@H](O)c2ccccc2)CC1 [TC25] | 20.7 | 410 | 0.848 |  | 8.48 | 
Oc1cccc(CNCCCN(Cc2ccccc2)c2ccccc2)c1 [TC30] | 13.1 | 1060 | 1.8 | 7740 | 13.84 | 
Fc1ccc2[nH]c(-c3ccc(-c4ccc(CNCCN5CCNCC5)cc4)cc3)nc2c1.O=C(O)C(F)(F)F [TC31] | 12.1 | 2390 | 2.9 |  | 28.84 | 
COc1cc2c(cc1S(=O)(=O)c1ccc(COc3ccc(C(F)(F)F)cc3)cc1)CNCC2.Cl [TC36] | 12.0 | 1380 | 1.7 |  | 16.60 | 
O=C(c1ccc(-c2cnc3[nH]cc(-c4ccc(C(=O)N5CCOCC5)cc4)c3c2)cc1)N1CCOCC1 [TC43] | 65.9 | 440 | 2.9 |  | 28.99 | 
CN1CCC(NCc2ccc(-c3cnc(NCc4ccccc4)nc3)cc2)CC1.O=C(O)C(F)(F)F [TC47] | 11.6 | 960 | 1.7 | 6570 | 11.10 | 
Cc1cccc(Nc2nc(NCCCCN)nc3cc[nH]c(=O)c23)c1.O=C(O)C(F)(F)F [TC51] | 75.4 | 380 | 2.9 |  | 28.66 | 
CCCCNS(=O)(=O)c1ccc(NC(=O)c2cc([N+](=O)[O-])ccc2Cl)cc1 [TC52] | 270.3 | 370 | 13.2 | 7560 | 100.00 | DGFA Tox50 HepG2 (HepG2 cells): 100 µM
Cc1ccc(C)c(S(=O)(=O)NCC2CCN(Cc3ccc(O)cc3)CC2)c1.O=C(O)C(F)(F)F [TC53] | 54.7 | 1490 | 8.2 |  | 81.55 | 
CN1CCN(c2ccc(Nc3c4ccccc4nc4ccccc34)cc2)CC1 [TC57] | 45.2 | 590 | 3.0 | 8840 | 26.65 | 
CCn1c(-c2nonc2N)nc2c(-c3ccccc3)ncc(OCCCNCCCN3CCOCC3)c21.O=C(O)C(F)(F)F [TC62] | 11.8 | 1370 | 2.5 | 6490 | 16.12 | 
COCCn1c(Sc2ncnc3sccc23)nc2ccccc21 [TC65] | 81.3 | 1230 | 94.3 | 1060 | 100.00 | DGFA Tox50 HepG2 (HepG2 cells): 100 µM
CS(=O)(=O)Cc1ccc(Nc2ncc(Cl)c(Nc3cccnc3C(N)=O)n2)cc1.Cl [TC68] | 16.0 | 6250 | 10.0 |  | 100.00 | DGFA Tox50 HepG2 (HepG2 cells): 100 µM
Cl.O=C1Nc2ccc3ncccc3c2/C1=C/Nc1ccc(N2CCN(CCO)CC2)cc1 [TC71] | 225.8 | 150 | 3.4 |  | 33.87 | 
CN(C)c1ccnc2ccc(NC(=O)Nc3ccnc4ccccc34)cc12 [TC74] | 13.3 | 1700 | 3.8 | 5920 | 22.68 | 
CC(CO)(CO)NCc1cc2c3ccccc3c(CNC(C)(CO)CO)cc2c2ccccc12.CS(=O)(=O)O [TC76] | 15.0 | 870 | 2.7 | 4790 | 13.04 | 
CNC(=S)NN=C(C)c1ccccn1 [TCMDC-123475] |  |  |  |  |  | Average inhibition male (%) [1, 5]: 95.4%; % inhibition male (individual replicates) R1 [1, 6]: 96.5%; % inhibition male (individual replicates) R3 [1, 7]: 96.2%; % inhibition male (individual replicates) R4 [1, 8]: 91.6%; Selectivity Ratio M [1]: 0.29; IC50 ([1]; PfDGFA, 24 h incubation with gametocytes before induction, exflagellation readout, read-out: Male IC50): 450 nM; Average inhibition female (%) [2, 5]: 52.8%; % inhibition female (individual replicates) R1 [2, 6]: 38.7%; % inhibition female (individual replicates) R3 [2, 7]: 43.6%; % inhibition female (individual replicates) R4 [2, 8]: 50.7%; Selectivity ratio F [2]: 0.49; IC50 ([2]; PfDGFA, 24 h incubation with gametocytes before induction, female gamete readout, read-out: Female IC50): 270 nM; Tox50 (HepG2 cells): 0.13 µM
O=C1SC(=Cc2ccc(O)c(O)c2)C(=O)N1c1ccccc1 [TCMDC-123491] |  |  |  |  | 36.79 | Selectivity Ratio M [1]: 21.44; Cytotox ratio Pf Male ([1]; Mean TOX HepG2 over DGFA IC50 MALE, GREEN = >10-fold, RED = <10-fold): 21.4; inhibition at 2 µM ([1]; Plasmodium falciparum, 2µM, 24h preincubation with gametocytes, average of replicates, read-out: Average inhibition male (%)): 96.8%; inhibition at 2 µM ([1]; Plasmodium falciparum, 2µM, 24h preincubation with gametocytes, replicate R1, read-out: % inhibition male (individual replicates) R1): 96%; inhibition at 2 µM ([1]; Plasmodium falciparum, 2µM, 24h preincubation with gametocytes, replicate R2, read-out: % inhibition male (individual replicates) R2): 93.5%; inhibition at 2 µM ([1]; Plasmodium falciparum, 2µM, 24h preincubation with gametocytes, replicate R3, read-out: % inhibition male (individual replicates) R3): 98.6%; inhibition at 2 µM ([1]; Plasmodium falciparum, 2µM, 24h preincubation with gametocytes, replicate R4, read-out: % inhibition male (individual replicates) R4): 98.9%; IC50 ([1]; Plasmodium falciparum, PfDGFA, 24 h incubation with gametocytes before induction, exflagellation readout, read-out: Male IC50): 1720 nM; Selectivity ratio F [2]: 4.36; Cytotox ratio Pf Female ([2]; Mean TOX HepG2 over DGFA IC50 FEM, GREEN = >10-fold, RED = <10-fold): 4.4; inhibition at 2 µM ([2]; Plasmodium falciparum, 2µM, 24h preincubation with gametocytes, average of replicates, read-out: Average inhibition female (%)): 28.5%; inhibition at 2 µM ([2]; Plasmodium falciparum, 2µM, 24h preincubation with gametocytes, replicate R1, read-out: % inhibition female (individual replicates) R1): 24.6%; inhibition at 2 µM ([2]; Plasmodium falciparum, 2µM, 24h preincubation with gametocytes, replicate R2, read-out: % inhibition female (individual replicates) R2): 17.5%; inhibition at 2 µM ([2]; Plasmodium falciparum, 2µM, 24h preincubation with gametocytes, replicate R3, read-out: % inhibition female (individual replicates) R3): 26.8%; inhibition at 2 µM ([2]; Plasmodium falciparum, 2µM, 24h preincubation with gametocytes, replicate R4, read-out: % inhibition female (individual replicates) R4): 45.3%; IC50 ([2]; Plasmodium falciparum, PfDGFA, 24 h incubation with gametocytes before induction, female gamete readout, read-out: Female IC50): 8430 nM; Tox50 (HepG2 cells): 36.79 µM
